Measurements as given in PubChem BioAssay (NCI).
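Assay format: 96-well plates, 48-hour exposure. At the TGI there is no net growth.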

How the values were obtained:
Assay in all cases: DTP human tumour cell line panel, 48 h
[1] = tested on: SNB-19 CNS
[2] = tested on: OVCAR-4 ovarian
[3] = tested on: DLD-1 colon
[4] = tested on: LOX IMVI melanoma
[5] = tested on: UACC-62 melanoma
[6] = tested on: SW-620 colon
[7] = tested on: SK-MEL-2 melanoma
[8] = tested on: SK-MEL-5 melanoma
[9] = tested on: K-562 leukemia
[10] = tested on: NCI-H522 lung
[11] = tested on: SF-268 CNS
[12] = tested on: SF-539 CNS
[13] = tested on: XF 498 CNS
[14] = tested on: T-47D breast
[15] = tested on: DMS 114 small cell lung
[16] = tested on: M14 melanoma
[17] = tested on: NCI-H23 lung
[18] = tested on: M19-MEL melanoma
[19] = tested on: UACC-257 melanoma
[20] = tested on: OVCAR-8 ovarian
[21] = tested on: ACHN renal
[22] = tested on: LXFL 529 NSCLC
[23] = tested on: SR leukemia
[24] = tested on: DMS 273 small cell lung
[25] = tested on: U251 CNS
[26] = tested on: TK-10 renal
[27] = tested on: HCC-2998 colon
[28] = tested on: DU-145 prostate
[29] = tested on: EKVX NSCLC
[30] = tested on: NCI/ADR-RES ovarian
[31] = tested on: PC-3 prostate
[32] = tested on: BT-549 breast
[33] = tested on: HOP-92 NSCLC
[34] = tested on: MDA-N
[35] = tested on: SNB-75 CNS
[36] = tested on: MALME-3M melanoma
[37] = tested on: OVCAR-5 ovarian
[38] = tested on: HL-60(TB) leukemia
[39] = tested on: MDA-MB-231 breast
[40] = tested on: SN12C renal
[41] = tested on: MCF7 breast
[42] = tested on: NCI-H226 lung
[43] = tested on: A498 renal
[44] = tested on: MDA-MB-435
[45] = tested on: SF-295 CNS
[46] = tested on: RPMI-8226 leukemia
[47] = tested on: RXF 393 renal
[48] = tested on: RXF-631 renal
[49] = tested on: NCI-H460 lung
[50] = tested on: KM20L2 colon
[51] = tested on: HS 578T breast
[52] = tested on: MOLT-4 leukemia
[53] = tested on: HT29 colon
[54] = tested on: COLO 205 colon
[55] = tested on: HOP-62 NSCLC
[56] = tested on: CAKI-1 renal
[57] = tested on: SNB-78 CNS
[58] = tested on: KM12 colon
[59] = tested on: UO-31 renal
[60] = tested on: OVCAR-3 ovarian
[61] = tested on: SK-OV-3 ovarian
[62] = tested on: CCRF-CEM leukemia
[63] = tested on: 786-0 renal
[64] = tested on: SK-MEL-28 melanoma
[65] = tested on: IGROV1 ovarian
[66] = tested on: HCT-15 colon
[67] = tested on: HCT-116 colon
[68] = tested on: A549 NSCLC

## O=C1C=CC(=O)c2c(O)c(CO)c(CO)c(O)c21
[1]
  TGI: 6130 nM
[2]
  TGI: 581 nM
[3]
  TGI: 202 nM
[4]
  TGI: 674 nM
[5]
  TGI: 1880 nM
[6]
  TGI: 288 nM
[7]
  TGI: 2580 nM
[8]
  TGI: 1120 nM
[9]
  TGI: 13400 nM
[10]
  TGI: 239 nM
[11]
  TGI: 3930 nM
[12]
  TGI: 1710 nM
[13]
  TGI: 665 nM
[14]
  TGI: 1520 nM
[15]
  TGI: 878 nM
[16]
  TGI: 411 nM
[17]
  TGI: 1300 nM
[18]
  TGI: 216 nM
[19]
  TGI: 883 nM
[20]
  TGI: 2040 nM
[21]
  TGI: 1050 nM
[22]
  TGI: 351 nM
[23]
  TGI: 481 nM
[24]
  TGI: 1420 nM
[25]
  TGI: 5350 nM
[26]
  TGI: 842 nM
[27]
  TGI: 4780 nM
[28]
  TGI: 3270 nM
[29]
  TGI: 5030 nM
[30]
  TGI: 8200 nM
[31]
  TGI: 4370 nM
[32]
  TGI: 593 nM
[33]
  TGI: 944 nM
[34]
  TGI: 736 nM
[35]
  TGI: 1640 nM
[36]
  TGI: 467 nM
[37]
  TGI: 3540 nM
[38]
  TGI: 405 nM
[39]
  TGI: 2740 nM
[40]
  TGI: 774 nM
[41]
  TGI: 337 nM
[42]
  TGI: 5030 nM
[43]
  TGI: 3640 nM
[44]
  TGI: 1660 nM
[45]
  TGI: 3190 nM
[46]
  TGI: 814 nM
[47]
  TGI: 939 nM
[48]
  TGI: 2550 nM
[49]
  TGI: 2790 nM
[50]
  TGI: 2250 nM
[51]
  TGI: 4710 nM
[52]
  TGI: 188 nM
[53]
  TGI: 741 nM
[54]
  TGI: 171 nM
[55]
  TGI: 2400 nM
[56]
  TGI: 875 nM
[57]
  TGI: 3520 nM
[58]
  TGI: 3190 nM
[59]
  TGI: 2200 nM
[60]
  TGI: 1710 nM
[61]
  TGI: 18000 nM
[62]
  TGI: 195 nM
[63]
  TGI: 723 nM
[64]
  TGI: 960 nM
[65]
  TGI: 4140 nM
[66]
  TGI: 490 nM
[67]
  TGI: 662 nM
[68]
  TGI: 5580 nM

## CN(O)C(=O)c1ccccc1
[1]
  TGI: > 100000 nM
[2]
  TGI: > 100000 nM
[3]
  TGI: > 100000 nM
[4]
  TGI: > 100000 nM
[5]
  TGI: > 100000 nM
[6]
  TGI: > 100000 nM
[8]
  TGI: > 100000 nM
[9]
  TGI: > 100000 nM
[10]
  TGI: > 100000 nM
[11]
  TGI: > 100000 nM
[12]
  TGI: > 100000 nM
[13]
  TGI: > 100000 nM
[15]
  TGI: > 100000 nM
[16]
  TGI: > 100000 nM
[17]
  TGI: > 100000 nM
[18]
  TGI: > 100000 nM
[19]
  TGI: > 100000 nM
[20]
  TGI: > 100000 nM
[21]
  TGI: > 100000 nM
[22]
  TGI: > 100000 nM
[23]
  TGI: > 100000 nM
[24]
  TGI: > 100000 nM
[25]
  TGI: > 100000 nM
[26]
  TGI: > 100000 nM
[27]
  TGI: > 100000 nM
[33]
  TGI: > 100000 nM
[35]
  TGI: > 100000 nM
[36]
  TGI: > 100000 nM
[37]
  TGI: > 100000 nM
[38]
  TGI: > 100000 nM
[40]
  TGI: > 100000 nM
[42]
  TGI: > 100000 nM
[45]
  TGI: > 100000 nM
[46]
  TGI: > 100000 nM
[47]
  TGI: > 100000 nM
[48]
  TGI: > 100000 nM
[49]
  TGI: > 100000 nM
[50]
  TGI: > 100000 nM
[52]
  TGI: > 100000 nM
[53]
  TGI: > 100000 nM
[54]
  TGI: > 100000 nM
[55]
  TGI: > 100000 nM
[56]
  TGI: > 100000 nM
[58]
  TGI: > 100000 nM
[59]
  TGI: > 100000 nM
[60]
  TGI: > 100000 nM
[61]
  TGI: > 100000 nM
[62]
  TGI: > 100000 nM
[63]
  TGI: > 100000 nM
[64]
  TGI: > 100000 nM
[65]
  TGI: > 100000 nM
[67]
  TGI: > 100000 nM
[68]
  TGI: > 100000 nM
